EC50 data for 46 compounds are collected here from patent publication US12162867B2, “Inhibitors of RNA helicase DHX9 and uses thereof” (ACCENT THERAPEUTICS, INC., priority 2022, dated 2024).

The first assay has as its system circBRIP1 in HCT116 cells. Nature of the assay: DHX9 circBRIP1 cellular target engagement SYBR Green assay (qPCR). Type of assay: cell-based. The settings on record: Homo sapiens, HCT-116, circBRIP1, HCT116 cells; SyBr assay (marked ^+); read-out: DHX9 Cellular Target Engagement EC50.
Usually EC50 stands for the concentration that produces a half-maximal response. Regarding `CS(=O)(=O)Nc1cc(Cl)cc(NC(=O)c2cccc(-c3ccnc(Cl)c3)c2)c1` [Example 102, N-(3-chloro-5-(methylsulfonamido)phenyl)-3-(2-chloropyridin-4-yl)benzamide], the EC50 is more than 30000 nM.

`CS(=O)(=O)Nc1cc(Br)cc(NC(=O)c2cnn(-c3cccc(C#N)c3)c2)c1` [Example 52]: the EC50 was 3010 nM.

With `CS(=O)(=O)Nc1cc(Cl)cc(NC(=O)c2cc(C3CCNCC3)cs2)c1` [Example 243], the EC50 is more than 10000 nM. On the same count and under the same terms, in the case of `COc1cccc2cc(C(=O)Nc3cc(Cl)cc(NS(C)(=O)=O)c3)sc12` [Example 303] it was more than 10000 nM. As for `CN1CCC(c2ccc(-n3cc(C(=O)Nc4cc(Cl)cc(NS(C)(=O)=O)c4)cn3)nc2)CC1=O` (stereo not shown) [Example 266], the EC50 was 1160 nM. With `CS(=O)(=O)Nc1cc(Cl)cc(NC(=O)c2cnn(-c3ccc(S(C)(=O)=O)cn3)c2)c1` [Example 198], the EC50 was more than 10000 nM. The same measure, in the same setting: in the case of `CS(=O)(=O)Nc1cc(Cl)cc(NC(=O)c2cc3c(Cl)cccc3s2)c1` [Example 332] it was 3340 nM; in that of `CC(c1ccccc1)n1cc(C(=O)Nc2cc(Cl)cc(NS(C)(=O)=O)c2)cn1` (stereo not shown) [Example 142, N-(3-chloro-5-(methylsulfonamido)phenyl)-1-(1-phenylethyl)-1H-pyrazole-4-carboxamide], more than 10000 nM; in that of `CS(=O)(=O)Nc1cc(Cl)cc(NC(=O)c2cc(Br)cs2)c1` [Example 241], 3680 nM. Still for that read-out and setting: as for `CS(=O)(=O)Nc1cc(Cl)cc(NC(=O)c2cc3c(=O)[nH]ccn3c2)c1` [Example 301], the figure is 2410 nM.

For the compound `CS(=O)(=O)Nc1cc(Cl)cc(NC(=O)c2cnn(-c3ccc(N4CCCC4=O)cn3)c2)c1` [Example 90], the EC50 is 1060 nM.

Regarding `CS(=O)(=O)Nc1cc(Cl)cc(NC(=O)c2cnn(-c3ncccc3OCc3cn[nH]c3)c2)c1` [Example 206], the EC50 worked out at 1060 nM.

Turning to `Cc1cncc2cc(C(=O)Nc3cc(Cl)cc(NS(C)(=O)=O)c3)sc12` [Example 290], the EC50 is more than 10000 nM. Still for that read-out and setting: as for `Cc1cc(C(=O)Nc2cc(Cl)cc(NS(C)(=O)=O)c2)cn1-c1ccc(N(C)C2CCOC2)cn1` (stereo not shown) [Example 269], the figure is 37 nM. On the same count and under the same terms, in the case of `CS(=O)(=O)Nc1cc(Cl)cc(NC(=O)c2cc3c(F)c(F)ccc3s2)c1` [Example 324] it was 5900 nM. Still for that read-out and setting: as for `Cc1sc(C(=O)Nc2cc(Cl)cc(NS(C)(=O)=O)c2)cc1-c1ccccc1` [Example 11], the figure is 851 nM; as for `CS(=O)(=O)Nc1cc(Cl)cc(NC(=O)c2cc3c(F)cccc3s2)c1` [Example 296], 1140 nM.

Take `CS(=O)(=O)Nc1cc(Cl)cc(NC(=O)c2cc(C(F)(F)F)n(-c3ccc(N4CCOCC4)cn3)c2)c1` [Example 271]: the EC50 came to 761 nM. Still for that read-out and setting: as for `CS(=O)(=O)Nc1cc(Cl)cc(NC(=O)c2cnn(C3CCOC3)c2)c1` (stereo not shown) [Example 182], the figure is more than 10000 nM; as for `CS(=O)(=O)Nc1cc(Cl)cc(NC(=O)c2cc(-c3ccccc3O)cs2)c1` [Example 106], 414 nM; as for `CS(=O)(=O)Nc1cc(Cl)cc(NC(=O)c2cc3cnccn3c2)c1` [Example 330], 4870 nM.

For `Cn1cc(C(=O)Nc2cc(Cl)cc(NS(C)(=O)=O)c2)cc1-c1ccc(N2CCOCC2)cn1` [Example 273], the EC50 stood at 37.5 nM.

`Cc1cccnc1-n1cc(C(=O)Nc2cc(Br)cc(NS(C)(=O)=O)c2)cc1C` [Example 45]: the EC50 turned out to be 563 nM. The same measure, in the same setting: as for `CS(=O)(=O)Nc1cc(Cl)cc(NC(=O)c2cc3cccc(F)c3s2)c1` [Example 297], the figure is more than 10000 nM. Same read-out and setting: as for `CS(=O)(=O)Nc1cc(Cl)cc(NC(=O)c2cc(C(F)(F)F)n(-c3ccc(F)cn3)c2)c1` [Example 267], the figure is 2260 nM.

With `CS(=O)(=O)Nc1cc(F)cc(NC(=O)c2cc(-c3cccnc3)cs2)c1` [Example 105, N-(3-fluoro-5-(methylsulfonamido)phenyl)-4-(pyridin-3-yl)thiophene-2-carboxamide], the EC50 turned out to be 8330 nM. `CS(=O)(=O)Nc1cc(Cl)cc(NC(=O)c2cnn(C3CC4(CNC4)C3)c2)c1` [Example 146]: the EC50 is more than 10000 nM. Consider `CS(=O)(=O)Nc1cc(Cl)cc(NC(=O)c2cnn(-c3ccccc3Oc3cccc(F)c3)c2)c1` [Example 265], for which the EC50 stood at 4650 nM. The same measure, in the same setting: in the case of `CS(=O)(=O)Nc1cc(Cl)cc(NC(=O)c2cnn(-c3ncccc3OCc3cncnc3)c2)c1` [Example 188] it was 1460 nM; in that of `CS(=O)(=O)Nc1cc(Br)cc(NC(=O)c2cc(-c3cccnc3)cs2)c1` [Example 78], 457 nM. The same measure, in the same setting: in the case of `Cn1cc(C(=O)Nc2cc(Cl)cc(NS(C)(=O)=O)c2)cc1Br` [Example 83, 5-bromo-N-(3-chloro-5-(methylsulfonamido)phenyl)-1-methyl-1H-pyrrole-3-carboxamide] it was 911 nM; in that of `Cc1cc(C(=O)Nc2cc(Cl)cc(NS(C)(=O)=O)c2)cn1-c1ccc(N2CCCC2)cn1` [Example 270], 101 nM.

As for `Cc1cccc2cc(C(=O)Nc3cc(Cl)cc(NS(C)(=O)=O)c3)cn12` [Example 304], the EC50 came to 5980 nM. The same measure, in the same setting: as for `Cc1cccnc1-c1nc(C(=O)Nc2cc(Cl)cc(NS(C)(=O)=O)c2)cn1C` [Example 156], the figure is more than 10000 nM; as for `Cn1cc(C(=O)Nc2cc(Cl)cc(NS(C)(=O)=O)c2)cc1-c1ncc(F)cc1OCc1cnco1` [Example 268], 182 nM. `CS(=O)(=O)Nc1cc(Cl)cc(NC(=O)c2cnn(C3CCOCC3)c2)c1` [Example 131, N-(3-chloro-5-(methylsulfonamido)phenyl)-1-(tetrahydro-2H-pyran-4-yl)-1H-pyrazole-4-carboxamide]: the EC50 was more than 10000 nM. Still for that read-out and setting: as for `CS(=O)(=O)Nc1cc(Cl)cc(NC(=O)c2cnn([C@@H]3CC[C@H]3O)c2)c1` (single isomer, unassigned) [Example 306a], the figure is more than 10000 nM.

Still in this assay, the particulars now being: Homo sapiens, HCT-116, circBRIP1, HCT116 cells; ^+ SyBr assay was used; read-out: DHX9 Cellular Target Engagement EC50.
`CN1CCN(C(=O)c2cc(C(=O)Nc3cc(Cl)cc(NS(C)(=O)=O)c3)cn2-c2ccccn2)CC1` [Example 665]: the EC50 was 4990 nM.

With `Cn1cc(C(=O)Nc2cc(Cl)cc(NS(C)(=O)=O)c2)cc1-c1ccc(F)cn1` [Example 575], the EC50 is 215 nM.

For the compound `CS(=O)(=O)Nc1cc(Cl)cc(NC(=O)c2cnn(-c3ncccc3-c3cncc(F)c3)c2)c1` [Example 392], the EC50 is 2800 nM. Consider `CCOc1cnc(-n2cc(C(=O)Nc3cc(Cl)cc(NS(C)(=O)=O)c3)cc2C(F)(F)F)nc1` [Example 693], for which the EC50 is 858 nM. `CN(C)C(=O)c1cccc(OCc2cccc(F)c2)c1-n1cc(C(=O)Nc2cc(Cl)cc(NS(C)(=O)=O)c2)cn1` [Example 717]: the EC50 was more than 10000 nM. As for `CS(=O)(=O)Nc1cc(Cl)cc(NC(=O)c2cnn(-c3ncc(N4CC5(COC5)C4)cc3O)c2)c1` [Example 691], the EC50 was determined as 291 nM.

As to `Cc1cc(C(=O)Nc2cc(Cl)cc(NS(C)(=O)=O)c2)cn1-c1ncc([S+](C)[O-])cn1` (stereo not shown) [Example 657], the EC50 was found to be 817 nM.

Regarding `Cn1cc(C(=O)Nc2cc(Cl)cc(NS(C)(=O)=O)c2)cc1-c1ncc(Cl)cn1` [Example 577], the EC50 came out at 153 nM.

The assay is the same for the next values; noted with them: Homo sapiens, HCT-116, read-out: DHX9 Cellular Target Engagement EC50.
Turning to `CS(=O)(=O)Nc1cc(Cl)cc(NC(=O)c2cnn(-c3ncccc3COc3ccccc3)c2)c1` [Example 167, N-(3-chloro-5-(methylsulfonamido)phenyl)-1-(3-(phenoxymethyl)pyridin-2-yl)-1H-pyrazole-4-carboxamide], the EC50 came to 1750 nM.
